This assay concerns the target T1, Endochitinase A1 (Aspergillus fumigatus) (UniProt Q873Y0).
T1 sequence (whole entry): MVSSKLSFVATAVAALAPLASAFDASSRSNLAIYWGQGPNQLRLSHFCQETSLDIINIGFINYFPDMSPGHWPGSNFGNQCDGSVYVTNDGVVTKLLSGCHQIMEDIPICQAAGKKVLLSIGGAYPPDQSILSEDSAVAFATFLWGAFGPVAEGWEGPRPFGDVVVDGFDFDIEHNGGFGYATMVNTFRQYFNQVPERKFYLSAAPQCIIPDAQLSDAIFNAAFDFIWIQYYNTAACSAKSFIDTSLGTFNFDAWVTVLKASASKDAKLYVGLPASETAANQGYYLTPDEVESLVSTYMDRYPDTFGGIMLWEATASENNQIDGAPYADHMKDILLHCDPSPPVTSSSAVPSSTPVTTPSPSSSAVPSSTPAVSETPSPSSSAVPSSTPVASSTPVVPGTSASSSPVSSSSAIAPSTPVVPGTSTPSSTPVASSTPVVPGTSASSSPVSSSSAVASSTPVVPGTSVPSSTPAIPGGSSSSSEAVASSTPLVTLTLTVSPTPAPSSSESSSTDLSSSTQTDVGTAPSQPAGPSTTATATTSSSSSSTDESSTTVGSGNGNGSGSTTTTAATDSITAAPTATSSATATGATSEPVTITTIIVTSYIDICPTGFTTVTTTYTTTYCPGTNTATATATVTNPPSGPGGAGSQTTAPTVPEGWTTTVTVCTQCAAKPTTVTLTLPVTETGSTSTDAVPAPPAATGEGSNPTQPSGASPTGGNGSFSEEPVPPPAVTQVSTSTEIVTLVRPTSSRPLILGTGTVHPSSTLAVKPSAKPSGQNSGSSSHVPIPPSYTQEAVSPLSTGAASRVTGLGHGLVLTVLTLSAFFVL
To be noted: 1 mM.

The structures appear in SMILES notation. The source made the active and inactive calls. The rule behind the calls is not given here.

For `Nc1nnc(S(N)(=O)=O)s1`, the inhibition entry was “inactive”.

The values above are taken from ChEMBL document CHEMBL1287749, “Acetazolamide-based fungal chitinase inhibitors” (Bioorg Med Chem, 2010).
